How the values were obtained:
Test in all cases: SelectScreen kinase profiling, SSBK LanthaScreen Binding SP Technology
[1] = molecular target: kinase named in conditions (Homo sapiens, UniProt P54646); details: 10 μM
Experimental: (§1) Kinase selectivity screening was performed by Thermo Fisher Scientific (Paisley, U.K.) in their SelectScreen Biochemical Kinase Profiling Service. Assay information and data are presented in the Supporting Information.
(§2) Kinase selectivity screening was performed by ThermoFisher Scientific (Paisley, U.K.) in their SelectScreenTM
(§3) Biochemical Kinase Profiling service .
(§4) Illustration reproduced courtesy of Cell Signaling technology, Inc.
(§5) (B) Illustration of phylogenetic tree of kinases screened.

[2] = molecular target: kinase named in conditions (Homo sapiens, UniProt Q09013); details: DMPK, 10 μM
Experimental: as §1, §2, §3, §4, §5

[3] = molecular target: kinase named in conditions (Homo sapiens, UniProt O75716); details: STK16 (PKL12), 10 μM
Experimental: as §1, §2, §3, §4, §5

[4] = molecular target: kinase named in conditions (Homo sapiens, UniProt Q9BYT3); details: STK33, 10 μM
Experimental: as §1, §2, §3, §4, §5

[5] = molecular target: kinase named in conditions (Homo sapiens, UniProt Q8WXR4); details: MYO3B (MYO3 beta), 10 μM
Experimental: as §1, §2, §3, §4, §5

[6] = molecular target: kinase named in conditions (Homo sapiens, UniProt P22612); details: PRKACG (PRKAC gamma), 10 μM
Experimental: as §1, §2, §3, §4, §5

[7] = molecular target: kinase named in conditions (Homo sapiens, UniProt Q9Y572); details: RIPK3, 10 μM
Experimental: as §1, §2, §3, §4, §5

[8] = molecular target: kinase named in conditions (Homo sapiens, UniProt P37173); details: TGFBR2, 10 μM
Experimental: as §1, §2, §3, §4, §5

[9] = molecular target: kinase named in conditions (Homo sapiens, UniProt P53779); details: MAPK10 (JNK3), 10 μM
kinase named in conditions (Homo sapiens, UniProt P53779), sequence (P53779 whole entry): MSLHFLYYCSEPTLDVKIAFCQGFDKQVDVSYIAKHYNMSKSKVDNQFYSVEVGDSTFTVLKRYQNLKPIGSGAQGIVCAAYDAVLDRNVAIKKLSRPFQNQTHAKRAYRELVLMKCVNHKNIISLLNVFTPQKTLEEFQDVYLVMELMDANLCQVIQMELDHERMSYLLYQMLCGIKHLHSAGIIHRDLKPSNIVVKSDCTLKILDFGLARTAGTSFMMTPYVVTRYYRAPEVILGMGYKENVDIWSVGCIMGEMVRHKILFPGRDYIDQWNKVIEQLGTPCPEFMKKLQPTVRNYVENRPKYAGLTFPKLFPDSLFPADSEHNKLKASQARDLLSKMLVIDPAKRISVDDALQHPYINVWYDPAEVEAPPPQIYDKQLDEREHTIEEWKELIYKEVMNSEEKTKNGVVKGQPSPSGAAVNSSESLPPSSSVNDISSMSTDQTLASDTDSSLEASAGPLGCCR
Experimental: as §1, §2, §3, §4, §5

[10] = molecular target: kinase named in conditions (Homo sapiens, UniProt Q9Y2U5); details: MAP3K2 (MEKK2), 10 μM
kinase named in conditions (Homo sapiens, UniProt Q9Y2U5), sequence (Q9Y2U5 whole entry): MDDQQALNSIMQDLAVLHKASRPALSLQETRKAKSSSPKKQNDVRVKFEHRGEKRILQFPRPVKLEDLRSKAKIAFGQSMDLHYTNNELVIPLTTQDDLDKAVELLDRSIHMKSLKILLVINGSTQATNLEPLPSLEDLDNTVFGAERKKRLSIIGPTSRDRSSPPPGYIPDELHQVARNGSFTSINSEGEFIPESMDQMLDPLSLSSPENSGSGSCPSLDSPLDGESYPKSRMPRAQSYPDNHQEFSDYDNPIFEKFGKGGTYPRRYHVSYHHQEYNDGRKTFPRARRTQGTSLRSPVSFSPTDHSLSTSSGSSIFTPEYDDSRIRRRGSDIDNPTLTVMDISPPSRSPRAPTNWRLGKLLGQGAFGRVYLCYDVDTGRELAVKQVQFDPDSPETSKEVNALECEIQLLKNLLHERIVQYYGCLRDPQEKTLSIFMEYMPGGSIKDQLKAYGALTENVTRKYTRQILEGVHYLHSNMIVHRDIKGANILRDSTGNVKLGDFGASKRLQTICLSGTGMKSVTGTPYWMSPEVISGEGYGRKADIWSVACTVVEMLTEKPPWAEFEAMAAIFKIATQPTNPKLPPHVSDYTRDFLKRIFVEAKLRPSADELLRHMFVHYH
Experimental: as §1, §2, §3, §4, §5

[11] = molecular target: kinase named in conditions (Homo sapiens, UniProt P52564); details: MAP2K6 (MKK6), 10 μM
Experimental: as §1, §2, §3, §4, §5

[12] = molecular target: kinase named in conditions (Homo sapiens, UniProt P22694); details: PRKACB (PRKAC beta), 10 μM
Experimental: as §1, §2, §3, §4, §5

[13] = molecular target: kinase named in conditions (Homo sapiens, UniProt Q9Y616); details: IRAK3, 10 μM
kinase named in conditions (Homo sapiens, UniProt Q9Y616), sequence (Q9Y616 whole entry): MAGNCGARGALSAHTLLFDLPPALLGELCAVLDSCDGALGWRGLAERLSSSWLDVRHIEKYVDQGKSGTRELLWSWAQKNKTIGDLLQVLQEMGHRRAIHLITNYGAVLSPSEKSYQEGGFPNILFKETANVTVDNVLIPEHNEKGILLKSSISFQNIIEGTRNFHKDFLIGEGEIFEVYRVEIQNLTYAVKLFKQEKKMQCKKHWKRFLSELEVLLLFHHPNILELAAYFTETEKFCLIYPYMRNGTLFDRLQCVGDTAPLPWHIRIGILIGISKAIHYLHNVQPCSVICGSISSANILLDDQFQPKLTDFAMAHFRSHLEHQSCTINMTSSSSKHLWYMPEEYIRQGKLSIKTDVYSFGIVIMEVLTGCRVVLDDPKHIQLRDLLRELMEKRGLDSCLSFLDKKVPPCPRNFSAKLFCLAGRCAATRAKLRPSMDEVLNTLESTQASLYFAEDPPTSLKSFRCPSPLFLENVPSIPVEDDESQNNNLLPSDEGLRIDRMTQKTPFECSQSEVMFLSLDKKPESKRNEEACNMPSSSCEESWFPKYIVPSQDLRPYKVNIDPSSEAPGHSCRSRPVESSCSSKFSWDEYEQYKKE
Experimental: as §1, §2, §3, §4, §5

[14] = molecular target: kinase named in conditions (Homo sapiens, UniProt Q92918); details: MAP4K1 (HPK1), 10 μM
Experimental: as §1, §2, §3, §4, §5

[15] = molecular target: kinase named in conditions (Homo sapiens, UniProt Q8NEV4); details: MYO3A (MYO3 alpha), 10 μM
Experimental: as §1, §2, §3, §4, §5

[16] = molecular target: kinase named in conditions (Homo sapiens, UniProt P52564, S207E/T211E); details: MAP2K6 (MKK6) S207E T211E, 10 μM
kinase named in conditions (Homo sapiens, UniProt P52564, S207E/T211E), sequence (P52564 whole entry S207E/T211E): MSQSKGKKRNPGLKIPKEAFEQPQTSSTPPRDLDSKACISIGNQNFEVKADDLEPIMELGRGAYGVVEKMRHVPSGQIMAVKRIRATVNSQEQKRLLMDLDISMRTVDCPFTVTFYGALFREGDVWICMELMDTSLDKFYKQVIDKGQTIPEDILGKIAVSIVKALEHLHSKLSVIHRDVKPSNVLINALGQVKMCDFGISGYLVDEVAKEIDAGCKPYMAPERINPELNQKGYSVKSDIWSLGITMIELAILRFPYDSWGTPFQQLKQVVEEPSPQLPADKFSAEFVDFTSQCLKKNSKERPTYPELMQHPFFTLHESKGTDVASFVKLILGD
Experimental: as §1, §2, §3, §4, §5

[17] = molecular target: kinase named in conditions (Homo sapiens, UniProt Q9H2K8); details: TAOK3 (JIK), 10 μM
Experimental: as §1, §2, §3, §4, §5

[18] = molecular target: kinase named in conditions (Homo sapiens, UniProt Q9Y3S1); details: WNK2, 10 μM
Experimental: as §1, §2, §3, §4, §5

[19] = molecular target: kinase named in conditions (Homo sapiens, UniProt P10721, Y823D); details: KIT Y823D, 10 μM
Experimental: as §1, §2, §3, §4, §5

[20] = molecular target: kinase named in conditions (Homo sapiens, UniProt Q02750, S218D/S222D); details: MAP2K1 (MEK1) S218D S222D, 10 μM
Experimental: as §1, §2, §3, §4, §5

[21] = molecular target: kinase named in conditions (Homo sapiens, UniProt P10721, N822K); details: KIT N822K, 10 μM
kinase named in conditions (Homo sapiens, UniProt P10721, N822K), sequence (P10721 26-976 N822K): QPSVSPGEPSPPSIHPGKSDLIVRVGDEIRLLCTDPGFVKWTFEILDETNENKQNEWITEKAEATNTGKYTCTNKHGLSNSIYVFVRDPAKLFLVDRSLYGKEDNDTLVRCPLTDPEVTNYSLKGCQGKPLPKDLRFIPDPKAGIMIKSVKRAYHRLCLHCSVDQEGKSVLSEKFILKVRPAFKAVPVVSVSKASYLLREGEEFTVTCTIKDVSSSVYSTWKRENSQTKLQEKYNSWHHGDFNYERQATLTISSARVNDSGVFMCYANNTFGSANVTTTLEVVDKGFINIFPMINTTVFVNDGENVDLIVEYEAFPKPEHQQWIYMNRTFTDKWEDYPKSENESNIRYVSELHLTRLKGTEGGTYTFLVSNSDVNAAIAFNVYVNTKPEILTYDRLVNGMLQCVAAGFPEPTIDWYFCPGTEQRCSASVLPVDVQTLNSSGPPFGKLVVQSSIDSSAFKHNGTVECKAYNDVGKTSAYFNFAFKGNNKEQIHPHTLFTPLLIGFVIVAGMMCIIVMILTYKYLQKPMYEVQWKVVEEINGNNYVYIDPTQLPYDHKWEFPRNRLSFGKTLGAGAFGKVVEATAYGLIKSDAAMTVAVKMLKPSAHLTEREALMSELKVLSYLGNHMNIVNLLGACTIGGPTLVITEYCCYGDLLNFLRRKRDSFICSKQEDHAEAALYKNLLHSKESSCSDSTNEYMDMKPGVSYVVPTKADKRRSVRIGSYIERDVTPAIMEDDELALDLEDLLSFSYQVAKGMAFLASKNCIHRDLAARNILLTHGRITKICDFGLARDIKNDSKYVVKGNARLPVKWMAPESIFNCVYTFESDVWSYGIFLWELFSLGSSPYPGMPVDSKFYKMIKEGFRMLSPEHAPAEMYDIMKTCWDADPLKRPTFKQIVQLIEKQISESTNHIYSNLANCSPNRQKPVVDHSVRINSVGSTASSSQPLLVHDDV
Experimental: as §1, §2, §3, §4, §5

[22] = molecular target: kinase named in conditions (Homo sapiens, UniProt Q9HBH9); details: MKNK2 (MNK2), 10 μM
Experimental: as §1, §2, §3, §4, §5

[23] = molecular target: kinase named in conditions (Homo sapiens, UniProt P07949, G691S); details: RET G691S, 10 μM
Experimental: as §1, §2, §3, §4, §5

[24] = molecular target: kinase named in conditions (Homo sapiens, UniProt P45984); details: MAPK9 (JNK2), 10 μM
Experimental: as §1, §2, §3, §4, §5

[25] = molecular target: kinase named in conditions (Homo sapiens, UniProt Q96GX5); details: MASTL, 10 μM
Experimental: as §1, §2, §3, §4, §5

[26] = molecular target: kinase named in conditions (Homo sapiens, UniProt Q00535); details: CDK5 (Inactive), 10 μM
Experimental: as §1, §2, §3, §4, §5

[27] = molecular target: kinase named in conditions (Homo sapiens, UniProt O00311); details: CDC7/DBF4, 10 μM
Experimental: as §1, §2, §3, §4, §5

[28] = molecular target: kinase named in conditions (Homo sapiens, UniProt Q15208); details: STK38 (NDR), 10 μM
Experimental: as §1, §2, §3, §4, §5

[29] = molecular target: kinase named in conditions (Homo sapiens, UniProt Q9UF33); details: EPHA6, 10 μM
Experimental: as §1, §2, §3, §4, §5

[30] = molecular target: kinase named in conditions (Homo sapiens, UniProt Q13555); details: CAMK2G (CaMKII gamma), 10 μM
Experimental: as §1, §2, §3, §4, §5

[31] = molecular target: kinase named in conditions (Homo sapiens, UniProt O75385); details: ULK1, 10 μM
Experimental: as §1, §2, §3, §4, §5

[32] = molecular target: kinase named in conditions (Homo sapiens, UniProt P49336); details: CDK8/cyclin C, 10 μM
kinase named in conditions (Homo sapiens, UniProt P49336), sequence (P49336 whole entry): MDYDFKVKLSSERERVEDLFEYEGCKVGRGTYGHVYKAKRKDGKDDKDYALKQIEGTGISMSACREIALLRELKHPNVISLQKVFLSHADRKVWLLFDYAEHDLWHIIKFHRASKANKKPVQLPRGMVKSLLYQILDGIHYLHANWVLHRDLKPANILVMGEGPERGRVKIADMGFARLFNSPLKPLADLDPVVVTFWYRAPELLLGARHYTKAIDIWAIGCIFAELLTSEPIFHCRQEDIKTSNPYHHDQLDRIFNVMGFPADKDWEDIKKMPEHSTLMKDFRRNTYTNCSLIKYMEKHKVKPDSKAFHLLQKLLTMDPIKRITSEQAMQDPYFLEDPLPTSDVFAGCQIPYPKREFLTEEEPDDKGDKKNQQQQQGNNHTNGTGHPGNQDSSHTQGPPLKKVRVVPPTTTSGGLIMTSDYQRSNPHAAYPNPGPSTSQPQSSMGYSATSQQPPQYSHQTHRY
Experimental: as §1, §2, §3, §4, §5

[33] = molecular target: kinase named in conditions (Homo sapiens, UniProt Q07912); details: TNK2 (ACK), 10 μM
kinase named in conditions (Homo sapiens, UniProt Q07912), sequence (Q07912 whole entry): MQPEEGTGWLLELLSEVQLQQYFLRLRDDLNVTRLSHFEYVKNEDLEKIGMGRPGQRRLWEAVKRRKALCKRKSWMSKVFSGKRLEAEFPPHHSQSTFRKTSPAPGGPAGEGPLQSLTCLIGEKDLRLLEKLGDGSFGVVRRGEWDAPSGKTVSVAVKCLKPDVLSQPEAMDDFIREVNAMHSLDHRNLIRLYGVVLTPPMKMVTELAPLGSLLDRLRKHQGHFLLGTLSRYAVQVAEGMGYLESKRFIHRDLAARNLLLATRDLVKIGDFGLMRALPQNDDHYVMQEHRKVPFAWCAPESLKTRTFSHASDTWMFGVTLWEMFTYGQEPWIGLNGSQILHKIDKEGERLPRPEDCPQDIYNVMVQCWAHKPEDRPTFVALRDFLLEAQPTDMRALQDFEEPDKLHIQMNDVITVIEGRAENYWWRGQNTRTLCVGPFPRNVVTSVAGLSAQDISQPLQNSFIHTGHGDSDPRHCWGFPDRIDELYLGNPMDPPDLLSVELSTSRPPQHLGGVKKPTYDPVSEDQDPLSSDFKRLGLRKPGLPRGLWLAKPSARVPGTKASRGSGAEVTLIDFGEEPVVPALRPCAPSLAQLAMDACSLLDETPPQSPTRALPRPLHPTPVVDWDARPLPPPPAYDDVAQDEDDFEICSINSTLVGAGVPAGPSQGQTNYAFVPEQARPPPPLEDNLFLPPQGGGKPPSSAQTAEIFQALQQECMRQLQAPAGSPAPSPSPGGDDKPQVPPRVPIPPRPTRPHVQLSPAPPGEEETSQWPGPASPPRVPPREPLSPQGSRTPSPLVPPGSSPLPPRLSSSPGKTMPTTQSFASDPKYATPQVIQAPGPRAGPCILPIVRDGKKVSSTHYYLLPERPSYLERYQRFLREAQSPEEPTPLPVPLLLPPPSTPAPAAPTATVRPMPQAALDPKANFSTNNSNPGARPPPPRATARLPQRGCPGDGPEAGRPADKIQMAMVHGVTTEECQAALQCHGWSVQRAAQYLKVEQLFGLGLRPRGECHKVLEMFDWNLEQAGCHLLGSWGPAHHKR
Experimental: as §1, §2, §3, §4, §5

[34] = molecular target: kinase named in conditions (Homo sapiens, UniProt O14936); details: CASK, 10 μM
Experimental: as §1, §2, §3, §4, §5

kinase named in conditions (Homo sapiens, UniProt P54646), sequence (P54646 whole entry): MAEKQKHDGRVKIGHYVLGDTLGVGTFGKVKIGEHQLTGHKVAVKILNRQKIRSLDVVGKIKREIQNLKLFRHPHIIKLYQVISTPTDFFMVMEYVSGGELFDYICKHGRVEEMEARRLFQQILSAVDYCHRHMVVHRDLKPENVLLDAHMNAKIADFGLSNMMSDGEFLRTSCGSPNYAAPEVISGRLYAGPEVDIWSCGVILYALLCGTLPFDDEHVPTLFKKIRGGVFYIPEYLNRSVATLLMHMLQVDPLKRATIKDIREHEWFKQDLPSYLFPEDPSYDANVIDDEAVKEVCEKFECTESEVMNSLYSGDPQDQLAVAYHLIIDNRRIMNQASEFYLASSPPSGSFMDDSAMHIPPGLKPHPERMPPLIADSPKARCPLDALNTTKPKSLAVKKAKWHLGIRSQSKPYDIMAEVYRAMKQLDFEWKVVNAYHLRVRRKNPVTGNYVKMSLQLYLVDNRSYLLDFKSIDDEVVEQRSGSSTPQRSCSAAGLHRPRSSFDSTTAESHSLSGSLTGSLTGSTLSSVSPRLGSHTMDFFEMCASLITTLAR

Work on `FC(F)(F)c1c(Cl)ccc(-n2ccnn2)c1Cl` [8l, 1-(2,4-Dichloro-3-(trifluoromethyl)phenyl)-1H-1,2,3-triazole] yielded an inhibition at 10 µM ([1]; AMPK (A2/B2/G1)) of 12%, an inhibition at 10 µM ([1]; AMPK (A2/B2/G2)) of 24% and an inhibition at 10 µM [2] of 2%. The inhibition at 10 µM [3] was 17%, the inhibition at 10 µM [4] was 6% and the inhibition at 10 µM [5] was 4%. The inhibition at 10 µM [6] was 6%, the inhibition at 10 µM [7] was 10% and the inhibition at 10 µM [8] was 7%. The inhibition at 10 µM [9] was -1%, the inhibition at 10 µM [10] was 11% and the inhibition at 10 µM [11] was 2%. For the same molecule, the inhibition at 10 µM [12] was 1%, the inhibition at 10 µM [13] was 15% and the inhibition at 10 µM [14] was 15%. The inhibition at 10 µM [15] was -6%, the inhibition at 10 µM [16] was 11% and the inhibition at 10 µM [17] was -5%. For the same molecule, the inhibition at 10 µM [18] was 2%, the inhibition at 10 µM [19] was 6% and the inhibition at 10 µM [20] was 2%. The inhibition at 10 µM [21] was -3%, the inhibition at 10 µM [22] was 3% and the inhibition at 10 µM [23] was -8%. For the same molecule, the inhibition at 10 µM [24] was -5%, the inhibition at 10 µM [25] was -8% and the inhibition at 10 µM [26] was 1%. The inhibition at 10 µM [27] was -15%, the inhibition at 10 µM [28] was -8% and the inhibition at 10 µM [29] was 1%. For the same molecule, the inhibition at 10 µM [30] was 1%, the inhibition at 10 µM [31] was -2% and the inhibition at 10 µM [32] was 18%. The inhibition at 10 µM [33] was 3% and the inhibition at 10 µM [34] was 18%.

From publication PMC9150124, “Design of a Potent, Selective, and Brain-Penetrant Inhibitor of Wnt-Deactivating Enzyme Notum by Optimization of a Crystallographic Fragment Hit” (Journal of Medicinal Chemistry, 2022)
